Tested on: E. coli
Assay: Disinfection of E. coli-infected surfaces, SYTO9/PI confocal fluorescence microscopy
Format: cell-based
Conditions: on stainless steel, plastic and spinach leaf, 20 min treatment
Method: The efficacy of AquaROS as a disinfectant for reducing pathogen concentration was tested with three different surfaces infected with E. coli: stainless steel, plastic, and spinach leaf (cut from a single leaf as 1-cm×1-cm squares and washed 3× with distilled water and dried ambiently prior to E. coli deposition). For these experiments, E. coli was cultured in LB broth at 37° C. for approximately 16 hours. Using sterilized LB broth, the E. coli suspension was diluted to a concentration of 4.5×10^8 cells/mL, using a UV-vis spectrophotometer to monitor absorption at 600 nm. Infection of each surface was achieved by deposition of 10 μL of 4.5×10^8 cell/mL E. coli suspension followed by drying in a desiccator for approximately 10 min. AquaROS was applied by spraying pure water at 120 psi and at a height of 1.5 cm from the E. coli surface with a 10 μl/min flow rate for 20 min (FIG. 6). Control samples were treated by depositing 100 μL of 3% H2O2 and allowing it to react for 20 min at room temperature. Following treatment with AquaROS spray and 3% H2O2, 1 mL PBS 1× (pH 7.4) was added to the glass vial containing the treated material, swirled, then pipetted into a 1-mL Eppendorf tube. […]
FIG. 7 is a plot of E. coli death by AquaROS spray on the different surfaces compared to 3% H2O2. Cell death data were acquired by confocal fluorescence microscopy of each sample placed on a glass slide. […]

SMILES: OO [3% H2O2, hydrogen peroxide]
- E. coli death: approximately 60%

From US20220105218A1, “METHODS AND SYSTEMS FOR REDUCING A PATHOGEN POPULATION” (The Board of Trustees of the Leland Standford Junior …, priority 2019, published 2022)
